The results in this text go back to patent publication US20230092294A1, “COMPOSITIONS AND METHODS FOR POTENTIATING IMMUNE RESPONSE” (Kumquat Biosciences Inc., priority 2019, published 2023).

The test system of experiment [1] is HER2-positive OVCAR-3 ovarian cancer cells. Nature of the experiment: Additional CAR-T killing assay (Example 11). In kind it is cell-based, human. As to conditions: HER2 scFv-CD28-CD3z-CAR-T cells from Donor 1 or Donor 2, compound-treated 1h at 1, 3 or 10 μM; co-culture 2 h; vs DMSO; FIG. 5. The text has this:
HER2 scFv-CD28-CD3z-CAR-T (Creative Bio) lentiviral particles were generated via transfection of 293T cells using Lipofectamine 2000 transfection reagent (ThermoFisher) according to manufacturer's instructions Human CD3+ T cells were negatively selected from peripheral blood mononuclear cells (PBMCs) (Discovery Life Sciences) from two individual healthy donors (Donor 1, Donor 2) using EasySep Human T cell Isolation Kit (StemCell Technologies #17951) and subsequently activated at a concentration of 0.5×10^6 cells/mL with Human T Expander Dynabeads (Gibco) (Thermo Fisher Scientific #11141D) at a ratio of 1 bead per cell in CTS Optimizer T cell expansion serum free medium (SFM) (Thermo Fisher Scientific #A1048501) supplemented with recombinant human IL-7 (10 ng/mL) and recombinant human IL-15 (5 ng/mL) (Peprotech #200-02). […]
For the killing assay, HER2-positive OVCAR-3 (ATCC #HTB-161) ovarian cancer cells stably transduced with IncuCyte Nuclight Red Lentivirus (Essen Biosciences #4706) in OVCAR media (RPMI 1640+20% FBS, 1% Pen-Strep +0.01 mg/mL human insulin) were plated (1.5×10^4 cells/well) in 96-well flat-bottom plates and incubated at 37° C. to allow for overnight adherence to serve as target cells. […] Tumor cell death was quantified on a ZE5 flow cytometer (Bio-Rad).

The test system of experiment [2] is HER-2 positive tumor line (OVCAR-3). Nature of the experiment: CAR-T killing assay (Example 7). It is filed as cell-based, human. The text has this: HER-2 specific CAR-T cells (CAR-Ts) were generated by transducing primary human CD3+ T cells (Discovery Life Sciences) with a lentivirus expressing a chimeric antigen receptor specific to human HER2, as well as GFP (Creative Bio). Prior to transduction, T cells were stimulated overnight with anti-CD3 and anti-CD28 antibodies coated onto magnetic beads (Invitrogen) at a 1:1 bead-to-cell ratio. Four days after transduction, the beads were removed and the following day CAR-Ts were sorted based on GFP expression and expanded in hIL7 ([…]) (Peprotech) and hIL15 (5 ng/mL) (Peprotech) for an additional 8 days. […]
CAR-Ts were pretreated with 0.1% DMSO (vehicle control) or a PTPN22 inhibitor (Compound A) for 1-2.5 hours prior to co-culture with cell lines at indicated concentrations. […] Tumor killing was assessed by comparing DMSO-treated CAR-Ts to PTPN22 inhibitor-treated CAR-Ts using either flow cytometry or Incucyte imaged-based assessment of tumor cell viability, at various effector:target ratios. Percent killing was assessed by calculating the amount of viable cells at a given time point as compared to untreated tumor cells (spontaneous release, marked “No CAR-T” in FIG. 2), tumor cells treated with PTPN22 inhibitor, and tumor cells cultured with DMSO treated CAR-T cells as a control.

For `O=C(O)c1cc2c(C#Cc3cccc(C(F)(F)F)c3)c(-c3ccccc3)oc2cc1O` [Compound A], the “tumor cell killing activity of CAR-T cells” value in experiment [1] was “higher tumor cell killing activity”; in experiment [2] (HER-2 specific CAR-Ts pretreated 1-2.5 hours then washed, compared to control cells treated with DMSO, FIG. 2), “higher tumor cell killing activity”. Besides, in experiment [2] (HER-2 specific CAR-Ts transiently pretreated 1-2.5 hours then washed, compared to DMSO control, FIG. 3), the “increase in cell killing” value is recorded as ≥ 1.5 fold.
